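Exposure lasted 48 hours, with cells grown in 96-well plates and compounds tested at five concentrations. The concentration for 50% growth inhibition is given as GI50.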 Calls of active or inactive are those of the source. Cut-off read from the data, not from the text of the source: active = GI50 up to about 1.1 µM and inactive = higher.
How the values were obtained:
Assay in all cases: DTP human tumour cell line panel, 48 h
SK-MEL-5 = tested on: SK-MEL-5
IGROV-1 = tested on: IGROV-1
COLO 205 = tested on: COLO 205
HOP-62 = tested on: HOP-62
SF-268 = tested on: SF-268
A498 = tested on: A498
HL-60 = tested on: HL-60
A549 = tested on: A549
NCI-H460 = tested on: NCI-H460
TK-10 = tested on: TK-10
SK-OV-3 = tested on: SK-OV-3
HOP-92 = tested on: HOP-92
T47D = tested on: T47D
NCI-H522 = tested on: NCI-H522
PC-3 = tested on: PC-3
UACC-62 = tested on: UACC-62
HT-29 = tested on: HT-29
786-0 = tested on: 786-0
Malme-3M = tested on: Malme-3M
RPMI-8226 = tested on: RPMI-8226

| Structure (SMILES) | GI50 (SK-MEL-5) | GI50 (IGROV-1) | GI50 (COLO 205) | GI50 (HOP-62) | GI50 (SF-268) | GI50 (A498) | GI50 (HL-60) | GI50 (A549) | GI50 (NCI-H460) | GI50 (TK-10) | GI50 (SK-OV-3) | GI50 (HOP-92) | GI50 (T47D) | GI50 (NCI-H522) | GI50 (PC-3) | GI50 (UACC-62) | GI50 (HT-29) | GI50 (786-0) | GI50 (Malme-3M) | GI50 (RPMI-8226) |
| --- | --- | --- | --- | --- | --- | --- | --- | --- | --- | --- | --- | --- | --- | --- | --- | --- | --- | --- | --- | --- |
| CC1=CC(c2ccccc2)OP1(=O)c1ccccc1 (stereo unspecified) | > 100 µM (inactive) | > 100 µM (inactive) | > 100 µM (inactive) | > 100 µM (inactive) | > 100 µM (inactive) | > 100 µM (inactive) | > 100 µM (inactive) | > 100 µM (inactive) | > 100 µM (inactive) | > 100 µM (inactive) | > 100 µM (inactive) | > 100 µM (inactive) | > 100 µM (inactive) | > 100 µM (inactive) | > 100 µM (inactive) | > 100 µM (inactive) | > 100 µM (inactive) | > 100 µM (inactive) | > 100 µM (inactive) | – |
| N#CC12CNCC1CN=N2 (stereo unspecified) | > 100 µM (inactive) | > 100 µM (inactive) | > 100 µM (inactive) | > 100 µM (inactive) | > 100 µM (inactive) | > 100 µM (inactive) | > 100 µM (inactive) | > 100 µM (inactive) | > 100 µM (inactive) | > 100 µM (inactive) | – | > 100 µM (inactive) | > 100 µM (inactive) | > 100 µM (inactive) | > 100 µM (inactive) | > 100 µM (inactive) | > 100 µM (inactive) | > 100 µM (inactive) | > 100 µM (inactive) | – |
| N#Cc1c(N)n(C2OC(CO)C(O)C2O)c2ncnc(N)c12 (stereo unspecified) | 0.0653 µM (active) | 0.22 µM (active) | 0.0329 µM (active) | 0.0335 µM (active) | 0.0597 µM (active) | 0.175 µM (active) | – | 0.119 µM (active) | 0.288 µM (active) | 0.0211 µM (active) | 0.0649 µM (active) | 0.136 µM (active) | 0.0403 µM (active) | 0.135 µM (active) | 0.0245 µM (active) | 0.0168 µM (active) | 0.0288 µM (active) | 0.0671 µM (active) | 0.0367 µM (active) | 0.184 µM (active) |
| O=C1OC2C(O)C(=O)OC2C1O (stereo unspecified) | > 100 µM (inactive) | > 100 µM (inactive) | > 100 µM (inactive) | > 100 µM (inactive) | > 100 µM (inactive) | > 100 µM (inactive) | > 100 µM (inactive) | > 100 µM (inactive) | > 100 µM (inactive) | – | > 100 µM (inactive) | > 100 µM (inactive) | > 100 µM (inactive) | > 100 µM (inactive) | > 100 µM (inactive) | > 100 µM (inactive) | > 100 µM (inactive) | > 100 µM (inactive) | > 100 µM (inactive) | – |
| O=c1[nH]c2ccc(C(F)(F)F)cc2nc1C(F)(F)F | 17.2 µM (inactive) | 22.8 µM (inactive) | 17.1 µM (inactive) | 18.3 µM (inactive) | 30.8 µM (inactive) | 25.7 µM (inactive) | – | 27.9 µM (inactive) | 33.9 µM (inactive) | 27.9 µM (inactive) | 27.1 µM (inactive) | 9.4 µM (inactive) | 13.2 µM (inactive) | 17.5 µM (inactive) | 23.3 µM (inactive) | 27.9 µM (inactive) | 29.2 µM (inactive) | 35.2 µM (inactive) | 21.2 µM (inactive) | 30.6 µM (inactive) |
| COc1ccc(C2OC2C(=O)C23CC4CC(CC(C4)C2)C3)cc1 (stereo unspecified) | 77.8 µM (inactive) | 71.1 µM (inactive) | – | 31.1 µM (inactive) | 54.6 µM (inactive) | > 100 µM (inactive) | 15.9 µM (inactive) | 45.6 µM (inactive) | 44.8 µM (inactive) | > 100 µM (inactive) | – | 19.1 µM (inactive) | 14.4 µM (inactive) | 45.5 µM (inactive) | 31.9 µM (inactive) | 10.4 µM (inactive) | 13.4 µM (inactive) | 46.3 µM (inactive) | > 100 µM (inactive) | 25.2 µM (inactive) |
| CNC1(C(=O)O)CC1 | > 100 µM (inactive) | > 100 µM (inactive) | – | > 100 µM (inactive) | > 100 µM (inactive) | > 100 µM (inactive) | > 100 µM (inactive) | > 100 µM (inactive) | > 100 µM (inactive) | > 100 µM (inactive) | – | > 100 µM (inactive) | 87.5 µM (inactive) | > 100 µM (inactive) | > 100 µM (inactive) | 69.2 µM (inactive) | > 100 µM (inactive) | > 100 µM (inactive) | > 100 µM (inactive) | > 100 µM (inactive) |
| COc1ccc(C[C@@H]2CN(C(=O)c3ccccc3)[C@H](Cc3ccc(O)cc3)CN2C(=O)c2ccccc2)cc1Br | – | > 100 µM (inactive) | > 100 µM (inactive) | > 100 µM (inactive) | > 100 µM (inactive) | > 100 µM (inactive) | > 100 µM (inactive) | > 100 µM (inactive) | > 100 µM (inactive) | > 100 µM (inactive) | > 100 µM (inactive) | > 100 µM (inactive) | > 100 µM (inactive) | – | 55.2 µM (inactive) | – | > 100 µM (inactive) | > 100 µM (inactive) | > 100 µM (inactive) | 82.8 µM (inactive) |
| COC(=O)C1=C(O)C(C(=O)OC)[C@]2(O)[C@H](C(=O)OC)[C@H]1C[C@@H](c1ccc(O)cc1)[C@H]2C(=O)OC (stereo partly specified) | 37.3 µM (inactive) | 41.2 µM (inactive) | 31.2 µM (inactive) | 18 µM (inactive) | 30.3 µM (inactive) | 33.3 µM (inactive) | 27.2 µM (inactive) | 32.5 µM (inactive) | 23.7 µM (inactive) | 25 µM (inactive) | 26.5 µM (inactive) | 79.8 µM (inactive) | 23.9 µM (inactive) | – | 19.9 µM (inactive) | 31.3 µM (inactive) | 27.5 µM (inactive) | 39 µM (inactive) | 32.7 µM (inactive) | 27.9 µM (inactive) |
| CC(C)(C)NC(=O)C12C3C4C1C1C2C3C41C(=O)NC(C)(C)C (stereo unspecified) | > 100 µM (inactive) | > 100 µM (inactive) | > 100 µM (inactive) | 58.9 µM (inactive) | > 100 µM (inactive) | > 100 µM (inactive) | > 100 µM (inactive) | > 100 µM (inactive) | > 100 µM (inactive) | > 100 µM (inactive) | – | 15.1 µM (inactive) | > 100 µM (inactive) | > 100 µM (inactive) | > 100 µM (inactive) | > 100 µM (inactive) | > 100 µM (inactive) | > 100 µM (inactive) | – | – |
| CCC1=C(c2ccc(OC)cc2)CC[C@@]2(CCNC2=O)[C@@H]1C | 22.1 µM (inactive) | > 100 µM (inactive) | > 63.4 µM (inactive) | > 100 µM (inactive) | > 100 µM (inactive) | > 100 µM (inactive) | – | > 100 µM (inactive) | > 100 µM (inactive) | > 100 µM (inactive) | > 100 µM (inactive) | > 100 µM (inactive) | > 50.7 µM (inactive) | 32.4 µM (inactive) | > 78.2 µM (inactive) | > 100 µM (inactive) | > 67.6 µM (inactive) | > 100 µM (inactive) | 58.7 µM (inactive) | > 46.1 µM (inactive) |
| O=C1CSC2(CC(/C=C/c3ccccc3O)=NN2c2cccc(S(=O)(=O)O)c2)N1c1nc2ccccc2s1 (stereo unspecified) | 25.9 µM (inactive) | 23.3 µM (inactive) | 29.9 µM (inactive) | – | 45 µM (inactive) | 42.9 µM (inactive) | 15.7 µM (inactive) | 50.4 µM (inactive) | 34.1 µM (inactive) | 20 µM (inactive) | – | 25.6 µM (inactive) | 19.6 µM (inactive) | 15.7 µM (inactive) | 64 µM (inactive) | 29.4 µM (inactive) | 45.4 µM (inactive) | 31.6 µM (inactive) | 41.9 µM (inactive) | 16 µM (inactive) |
| O=C(O)Cc1ccc(Nc2nc3cc(C(F)(F)F)ccc3nc2C(=O)O)cc1 | > 100 µM (inactive) | > 100 µM (inactive) | > 100 µM (inactive) | > 100 µM (inactive) | > 100 µM (inactive) | > 100 µM (inactive) | > 100 µM (inactive) | > 100 µM (inactive) | > 100 µM (inactive) | > 100 µM (inactive) | > 100 µM (inactive) | > 100 µM (inactive) | > 100 µM (inactive) | > 100 µM (inactive) | > 100 µM (inactive) | > 100 µM (inactive) | > 100 µM (inactive) | > 100 µM (inactive) | > 100 µM (inactive) | – |
| Nc1nc(O)c(Br)c(-c2cccc([N+](=O)[O-])c2)n1 | > 59.6 µM (inactive) | > 83.8 µM (inactive) | > 100 µM (inactive) | > 100 µM (inactive) | > 82.4 µM (inactive) | > 100 µM (inactive) | > 71.1 µM (inactive) | > 46.9 µM (inactive) | > 81.8 µM (inactive) | > 100 µM (inactive) | > 61.9 µM (inactive) | > 76 µM (inactive) | 91 µM (inactive) | 26.4 µM (inactive) | > 100 µM (inactive) | > 51.9 µM (inactive) | > 100 µM (inactive) | > 100 µM (inactive) | – | 37.8 µM (inactive) |
| COc1ccc(CCCCl)c(C2=NCCc3ccccc32)c1 | 9.59 µM (inactive) | 24.8 µM (inactive) | 17.3 µM (inactive) | 33.4 µM (inactive) | 27.5 µM (inactive) | > 100 µM (inactive) | 10.4 µM (inactive) | 44.2 µM (inactive) | 36.4 µM (inactive) | > 100 µM (inactive) | > 100 µM (inactive) | 71.1 µM (inactive) | 32.9 µM (inactive) | 6.75 µM (inactive) | 19.5 µM (inactive) | 84.5 µM (inactive) | 19.2 µM (inactive) | 89.5 µM (inactive) | – | 2.99 µM (inactive) |

— ChEMBL document CHEMBL1201862, “PubChem BioAssay data set” (2004)
